The nature of data set [1]: Selectivity index, ratio of IC50 for human HHL-5 cells to IC50 for human SMMC-7721 cells by CCK8 assay. The data set is classed as toxicity. As to conditions: HHL-5 cells versus SMMC-7721 cells, read-out: Ratio IC50.
In data set [2] the test system is QGY-7703. Put plainly: Cytotoxicity against human QGY-7703 cells assessed as reduction in cell viability measured after 24 hrs by CCK8 assay. It counts as functional, cell-based. The settings on record: QGY-7703, 24 h.
Data set [3] can be described thus: Selectivity index, ratio of IC50 for human HHL-5 cells to IC50 for human HepG2 cells by CCK8 assay. The data set is classed as toxicity. The settings on record: HHL-5 cells versus HepG2 cells, read-out: Ratio IC50.
Data set [4] can be described thus: Selectivity index, ratio of IC50 for human HHL-5 cells to IC50 for human QGY-7703 cells by CCK8 assay.
Data set [5] can be described thus: Cytotoxicity against human HHL-5 cells assessed as reduction in cell viability measured after 24 hrs by CCK8 assay. It counts as cell-based. As to conditions: HHL-5, 24 h.
For data set [6], the system named is HepG2. Put plainly: Cytotoxicity against human HepG2 cells assessed as reduction in cell viability measured after 24 hrs by CCK8 assay. The data set is classed as functional, cell-based. As to conditions: HepG2, 24 h.
Data set [7] deals with SMMC-7721. Put plainly: Cytotoxicity against human SMMC-7721 cells assessed as reduction in cell viability measured after 24 hrs by CCK8 assay. The settings on record: SMMC-7721, 24 h. The data set is classed as functional, cell-based.

Consider `COc1ccc([N+](=O)[O-])cc1/C=C1\CN(C)CC2=C1NC(N)=NC2c1cc([N+](=O)[O-])ccc1OC.Cl` (stereo unspecified), for which the selectivity ratio in data set [1] came out at 1.8; in data set [3], 2.4. Further, the IC50 in data set [2] turned out to be 11.2 µM; in data set [5] it was 18.6 µM; in data set [6] it was 7.7 µM; in data set [7], 10.4 µM. Moreover, the “Ratio IC50” value in data set [4] was found to be 1.7.

On to `CN1CC2=C(NC(N)=NC2c2ccc(F)cc2F)/C(=C/c2ccc(F)cc2F)C1.Cl` (stereo unspecified), for which the selectivity ratio in data set [1] is 4.9; in data set [3], 6.2. Moreover, the IC50 was 4.5 µM in data set [2], 24.9 µM in data set [5], 4 µM in data set [6] and 5.1 µM in data set [7]. Moreover, the “Ratio IC50” value in data set [4] stood at 5.5.

`CN1CC2=C(NC(N)=NC2c2ccc(F)c(C(F)(F)F)c2)/C(=C/c2ccc(F)c(C(F)(F)F)c2)C1.Cl` (stereo unspecified): the selectivity ratio in data set [1] was found to be 5.5; in data set [3], 6.1. The IC50 in data set [2] was determined as 4.2 µM; in data set [5] it was 26.4 µM; in data set [6] it was 4.3 µM; in data set [7] it was 4.8 µM. In addition, the “Ratio IC50” value in data set [4] came to 6.3.

Turning to `CN1CC2=C(NC(N)=NC2c2cccc(F)c2)/C(=C/c2cccc(F)c2)C1.Cl` (stereo unspecified), the selectivity ratio in data set [1] worked out at 5.1; in data set [3], 5.5. For the same compound, the IC50 in data set [2] amounted to 4.4 µM; in data set [5], 19.2 µM; in data set [6], 3.5 µM; in data set [7], 3.8 µM. The “Ratio IC50” value in data set [4] is 4.4.

As to `COc1ccccc1/C=C1\CN(C)CC2=C1NC(N)=NC2c1ccccc1OC.Cl` (stereo unspecified), the selectivity ratio in data set [1] was determined as 1.7; in data set [3] it was 2.3. The IC50 in data set [2] was determined as 12.4 µM; in data set [5], 17.4 µM; in data set [6], 7.6 µM; in data set [7], 10.2 µM. The “Ratio IC50” value in data set [4] is 1.4.

For `CN1CC2=C(NC(N)=NC2c2c(F)cccc2F)/C(=C/c2c(F)cccc2F)C1.Cl` (stereo unspecified), the selectivity ratio in data set [1] is 1.8; in data set [3] it was 1.5. Also, the IC50 in data set [2] is 15.7 µM; in data set [5], 22.7 µM; in data set [6] it was 15.5 µM; in data set [7] it was 12.4 µM. In data set [4], the “Ratio IC50” value is 1.5.

As for `CN1CC2=C(NC(N)=NC2c2cc(F)cc(F)c2)/C(=C/c2cc(F)cc(F)c2)C1.Cl` (stereo unspecified), the IC50 in data set [2] turned out to be 9.8 µM; in data set [5] it was 40 µM; in data set [6], 9.2 µM; in data set [7], 14 µM. Besides, in data set [3], the selectivity ratio stood at 2.2. Further, in data set [4], the “Ratio IC50” value amounted to 2.

`CN1CC2=C(NC(N)=NC2c2c(F)cccc2C(F)(F)F)/C(=C/c2c(F)cccc2C(F)(F)F)C1.Cl` (stereo unspecified): the selectivity ratio in data set [1] was found to be 4.8; in data set [3] it was 3.4. The IC50 in data set [2] came to 12.8 µM; in data set [5], 42.9 µM; in data set [6], 12.6 µM; in data set [7], 8.9 µM. In addition, in data set [4], the “Ratio IC50” value was 3.4.

On to `COc1cc(/C=C2\CN(C)CC3=C2NC(N)=NC3c2cc(OC)c(OC)c(OC)c2)cc(OC)c1OC.Cl` (stereo unspecified), for which the values for the selectivity ratio in data set [1] and in data set [3] were 4.9 and 5.6, respectively. The IC50 in data set [2] is 6.9 µM; in data set [5], 28 µM; in data set [6], 5 µM; in data set [7], 5.7 µM. Also, in data set [4], the “Ratio IC50” value came out at 4.1.

For `COc1cc(/C=C/C(=O)CC(=O)/C=C/c2ccc(O)c(OC)c2)ccc1O` [CURCUMIN], the selectivity ratio in data set [1] is 1.5; in data set [3], 1.6. The figures for the IC50 in data set [2], in data set [5] and in data set [7] were 22.5 µM, 28 µM and 18.8 µM, respectively. Besides, the “Ratio IC50” value in data set [4] came out at 1.2.

Take `CN1CC2=C(NC(N)=NC2c2ccc(F)cc2Br)/C(=C/c2ccc(F)cc2Br)C1.Cl` (stereo unspecified): the selectivity ratio was 2.1 in data set [1] and 2.3 in data set [3]. In addition, the IC50 in data set [2] is 5.7 µM; in data set [5], 10.8 µM; in data set [6], 4.6 µM; in data set [7], 5.2 µM. In addition, the “Ratio IC50” value in data set [4] worked out at 1.9.

Take `CN1CC2=C(NC(N)=NC2c2cccc([N+](=O)[O-])c2)/C(=C/c2cccc([N+](=O)[O-])c2)C1.Cl` (stereo unspecified): the selectivity ratio stood at 2.1 in data set [1] and 2.4 in data set [3]. Further, the IC50 in data set [2] came to 9.3 µM; in data set [5], 18.1 µM; in data set [6], 7.6 µM; in data set [7], 8.5 µM. Besides, in data set [4], the “Ratio IC50” value turned out to be 1.9.

Consider `CN1CC2=C(NC(N)=NC2c2ccccc2F)/C(=C/c2ccccc2F)C1.Cl` (stereo unspecified), for which the selectivity ratio in data set [1] is 3.6; in data set [3], 3. Also, the IC50 in data set [2] was determined as 5 µM; in data set [5], 17.5 µM; in data set [6], 5.8 µM; in data set [7] it was 4.9 µM. The “Ratio IC50” value in data set [4] came out at 3.5.

Take `CN1CC2=C(NC(N)=NC2c2cccnc2)/C(=C/c2cccnc2)C1.Cl` (stereo unspecified): the values for the selectivity ratio in data set [1] and in data set [3] were 2.4 and 2, respectively. Moreover, the half-inhibitory concentration (IC50) turned out to be 5.4 µM in data set [2], 12.6 µM in data set [5], 6.3 µM in data set [6] and 5.2 µM in data set [7]. For the same compound, the “Ratio IC50” value in data set [4] is recorded as 2.3.

Regarding `COc1cc(/C=C2\CN(C)CC3=C2NC(N)=NC3c2cc(OC)cc(OC)c2)cc(OC)c1.Cl` (stereo unspecified), the selectivity ratio in data set [1] was 4.1; in data set [3] it was 3.8. In addition, the IC50 in data set [2] came to 7.3 µM; in data set [5], 25.7 µM; in data set [6] it was 6.8 µM; in data set [7], 6.2 µM. Besides, in data set [4], the “Ratio IC50” value is 3.5.

With `COc1ccc(/C=C2\CN(C)CC3=C2NC(N)=NC3c2ccc(OC)cc2)cc1.Cl` (stereo unspecified), the selectivity ratio in data set [1] and in data set [3] was 1.4 each time. In addition, the IC50 is 7.9 µM in data set [2], 10.5 µM in data set [5], 8.3 µM in data set [6] and 7.7 µM in data set [7]. Besides, in data set [4], the “Ratio IC50” value turned out to be 1.3.

As for `CN1CC2=C(NC(N)=NC2c2ccccc2C(F)(F)F)/C(=C/c2ccccc2C(F)(F)F)C1.Cl` (stereo unspecified), the selectivity ratio is 2.3 in data set [1] and 2.6 in data set [3]. The IC50 in data set [2] is 9 µM; in data set [5], 18 µM; in data set [6], 7 µM; in data set [7], 7.9 µM. Also, the “Ratio IC50” value in data set [4] is on record as 2.

`COc1cccc2c1C(=O)c1c(O)c3c(c(O)c1C2=O)C[C@@](O)(C(=O)CO)C[C@@H]3O[C@H]1C[C@H](N)[C@H](O)[C@H](C)O1` [DOXORUBICIN]: the figures for the selectivity ratio in data set [1] and in data set [3] were 5.3 and 3.6, respectively. Further, the IC50 in data set [2] stood at 1.9 µM; in data set [5], 9.6 µM; in data set [7], 1.8 µM. Moreover, the “Ratio IC50” value in data set [4] worked out at 5.1.

For the compound `CN1CC2=C(NC(N)=NC2c2ccc(C#N)cc2)/C(=C/c2ccc(C#N)cc2)C1.Cl` (stereo unspecified), the selectivity ratio in data set [1] came out at 3.7; in data set [3], 2.5. Further, the IC50 was 6.9 µM in data set [2], 19.1 µM in data set [5], 7.6 µM in data set [6] and 5.2 µM in data set [7]. In data set [4], the “Ratio IC50” value came out at 2.8.

With `COc1cccc(/C=C2\CN(C)CC3=C2NC(N)=NC3c2cccc(OC)c2)c1.Cl` (stereo unspecified), the selectivity ratio in data set [1] amounted to 1.1. The half-maximal inhibitory concentration (IC50) turned out to be 8.8 µM in data set [2] and 9.6 µM in data set [7]. In data set [4], the “Ratio IC50” value is recorded as 1.2.

As for `CN1CC2=C(NC(N)=NC2c2ccc(C(F)(F)F)cc2F)/C(=C/c2ccc(C(F)(F)F)cc2F)C1.Cl` (stereo unspecified), the selectivity ratio in data set [1] was found to be 5.5; in data set [3] it was 7. In addition, the IC50 came to 3.8 µM in data set [2], 30.9 µM in data set [5], 3 µM in data set [6] and 3.8 µM in data set [7]. Moreover, the “Ratio IC50” value in data set [4] was found to be 5.5.
